Key:
[1] = system: spinal cord-injured rats; test: Inhibitory activity on detrusor hyperreflexia (cystometry test); format: in vivo, rat; conditions: average ± standard error
Procedure: The experiment was carried out according to the method of Cheng, et al. [Brain Res., Vol. 678, pp. 40-48 (1995)].
(§1) Female SD rats of 8 to 10 weeks of age (supplied by Japan SLC) were used in the test. Five to seven animals of these rats were put in each metal cage and reared by allowing them to freely take commercially available chow and water, in an animal room at room temperature between 19 and 25° C. and humidity between 30 and 70% under illumination for 12 hours (from 7:00 a.m. to 7:00 p.m.) per day.
An operation of spinal cord injury was performed in the rats. Each animal was anesthetized with diethyl ether and the skin of the back side thoracic cord part was incised. A laminectomy at the 7th to 8th thoracic vertebrae level was performed. Then, the thoracic cord at the T7-T8 segments was macroscopically cut and a section of spinal cord (about 5 mm) was removed, and the wound cavity of the removed part was filled with oxidized regenerated cellulose for hemostasis. The incised part was sutured with a surgical silk. After the spinal cord injury operation, urine was expressed manually twice per day (at 8:00-9:00 and 18:00-19:00) for about 3 weeks until autonomic micturition developed. An antibiotic (ampicillin, Sigma. Chemical Co.) was intramuscularly administered to the animals at a dose of 150 mg/kg once to twice per day for about 2 weeks.
(§2) Four to five weeks after the spinal cord injury, the rats were subjected to bladder catheterization. Under diethyl ether anesthesia, the bladder was exposed by midline incision of the abdomen. […] The bladder catheter was fixed with a surgical silk ligature and indwelled. The other end of the catheter was exposed subcutaneously from the back of the neck, plugged and then fixed to the skin with a surgical thread.
Four to six days after the bladder catheterization, a cystometry test was performed. The rats were put in a Bollman cage (Natsume Seisakusho Co., Ltd.) and a three-way cock was connected to the bladder catheter, one end of the cock was connected to a pressure transducer (Nihon Kohden Corp.) and the other end was connected to a 50-mL syringe (Terumo Corp.) arranged to an infusion pump (Harvard Apparatus, Inc.) for physiological saline infusion. The intravesical pressure signal from the pressure transducer was amplified with a strain pressure amplifier (AP-601G, Nihon Kohden Corp.) connected thereto, and was recorded on a thermal array recorder (RTA-1200, Nihon Kohden Corp.) via a polygraph system (RMP-6008, Nihon Kohden Corp.) containing the above amplifier. Sixty to ninety minutes after the completion of the preparation for the measurement, a room temperature physiological saline was infused into the bladder at a flow rate of 10 mL/h for 30 minutes, the occurence of micturition contractions was confirmed. Thirty minutes later, the infusion of physiological saline was carried out again for 30 minutes, and the intravesical pressure was measured to be used as the pre-administration value. Each of Compounds 1 to 6 was suspended in a 0.5 w/v % aqueous solution of methylcellulose at a concentration of 1 mg/mL suspension. The suspension was further diluted with a 0.5 w/v % aqueous solution of methylcellulose to prepare a suspension or solution for the administration at the intended concentration, which was then orally administered to the animals at a volume of 1 mL/kg. The period of 1, 3 and 5 hours after the dosing was used as the measuring time after the administration of the solvent or a compound tested, and the intravesical infusion of a physiological saline was carried out during a duration of 15 minutes around each measuring time (i.e. from 45 to 75 minutes, from 165 to 195 minutes and from 285 to 315 minutes after the administration of the compound).
Micturition contraction was measured as an index of the voiding function and pre-micturition contraction was measured as an index of detrusor hyperreflexia. […]

[2] = system: rats with bladder hypertrophy; test: Inhibitory activity on detrusor instability (cystometry test after partial urethral obstruction); format: in vivo, rat; conditions: average ± standard error
Procedure: The experiment was carried out according to the method of Malmgren, et al. [J. Urol., Vol. 142, pp. 1134-1138 (1989)].
as §1, with “(7:00 a.m.-7:00” for “(from 7:00 a.m. to 7:00”
The rats were subjected to operation of partial urethral obstruction. Each animal was anesthetized by intraperitoneal administration of 50 mg/kg pentobarbital sodium (Dainippon Pharmaceutical Co., Ltd.), and the midline incision of the skin and muscle was made in the lower abdomen. A polyethylene tube (PE-20, Nippon Becton Dickinson Co., Ltd.) was inserted into urethra from the urethral to the bladder neck. After the proximal urethra was peeled and double-ligated, the polyethylene tube was pulled out to cause partial urethral obstruction. The incised part was-sutured with a surgical silk thread. An antibiotic (ampicillin, Sigma Chemical Co.) was intramusclarly administered to the animals at a dose of 150 mg/kg.
as §2, with “Six” for “Four to five”, “operation of the partial urethral obstruction,” for “spinal cord injury,”, “rats with bladder hypertrophy” for “rats”, “anesthesia with pentobarbital sodium,” for “diethyl ether anesthesia,”
Four to six days after the bladder catheterization, a cystometry test was performed. The rats were put in a Bollman cage (Natsume Seisakusho Co., Ltd.) and a three-way cock was connected to the bladder catheter, one end of the cock was connected to a pressure transducer (Nihon Kohden Corp.) and the other end was connected to a 50-mL syringe (Terumo Corp.) arranged to an infusion pump (Harvard Apparatus, Inc.) for physiological saline infusion. The intravesical pressure signal from the pressure transducer was amplified with a strain pressure amplifier (AP-601G, Nihon Kohden Corp.) connected thereto, and was recorded on a thermal array recorder (RTA-1200, Nihon Kohden Corp.) via a polygraph system (RMP-6008, Nihon Kohden Corp.) containing the above amplifier. Sixty to ninety minutes after the completion of the preparation for the measurement, intravesical infusion of a room temperature physiological saline at a flow rate of 10 mL/h was started and continued until the completion of the test, and the occurrence of micturition contractions and pre-micturition contractions were confirmed. The chart for 30 minutes after 3 hours from the commencement of the saline infusion was used as the values before the drug administration. Each of Compounds 1 to 3 was suspended in a 0.5 w/v % aqueous solution of methylcellulose at a concentration of 1 mg/mL. The suspension was further diluted with a 0.5 w/v % aqueous solution of methylcellulose to prepare a suspension or solution for the administration at the intended concentration. This was then orally administered to the animals at a volume of 1 mL/kg. The period of 1, 3 and 5 hours after the dosing was used as the measuring time after the administration of the solvent or a compound tested, and a duration of 15 minutes around each measuring time (45 to 75 minutes, 165 to 195 minutes and 285 to 315 minutes after the administration of the compound) was used as the measuring period.
Micturition contraction was used as an index of the voiding function and pre-micturition contraction was measure as an index of detrusor instability. […]

Row | SMILES | micturition contractions (relative value, before administration = 100) ([1]; 1 mg/kg p.o., after 1 hr.) [%] | pre-micturition contractions (relative value, before administration = 100) ([1]; 1 mg/kg p.o., after 1 hr.) [%] | micturition contractions (relative value, before administration = 100) ([1]; 1 mg/kg p.o., after 3 hrs.) [%] | pre-micturition contractions (relative value, before administration = 100) ([1]; 1 mg/kg p.o., after 3 hrs.) [%] | micturition contractions (relative value, before administration = 100) ([1]; 1 mg/kg p.o., after 5 hrs.) [%] | pre-micturition contractions (relative value, before administration = 100) ([1]; 1 mg/kg p.o., after 5 hrs.) [%] | also measured
1 | COc1ccc2c(c1)CS(=O)(=O)c1cccc(NC(=O)C(C)(O)C(F)(F)F)c1C2=O (stereo not drawn) [Compound 2] | – | – | – | – | – | – | micturition contractions (relative value, before administration = 100) ([1]; 3 mg/kg p.o., after 1 hr.): 94.9 ± 14.3%; pre-micturition contractions (relative value, before administration = 100) ([1]; 3 mg/kg p.o., after 1 hr.): 55.1 ± 7.3%; micturition contractions (relative value, before administration = 100) ([1]; 3 mg/kg p.o., after 3 hrs.): 93.6 ± 16.7%; pre-micturition contractions (relative value, before administration = 100) ([1]; 3 mg/kg p.o., after 3 hrs.): 80.2 ± 23.6%; micturition contractions (relative value, before administration = 100) ([1]; 3 mg/kg p.o., after 5 hrs.): 99.4 ± 9.0%; pre-micturition contractions (relative value, before administration = 100) ([1]; 3 mg/kg p.o., after 5 hrs.): 66.8 ± 14.5%; micturition contractions (relative value, before administration = 100) ([2]; 3 mg/kg p.o., after 1 hr.): 104.5 ± 2.0%; pre-micturition contractions (relative value, before administration = 100) ([2]; 3 mg/kg p.o., after 1 hr.): 67.5 ± 7.9%; micturition contractions (relative value, before administration = 100) ([2]; 3 mg/kg p.o., after 3 hrs.): 101.9 ± 5.9%; pre-micturition contractions (relative value, before administration = 100) ([2]; 3 mg/kg p.o., after 3 hrs.): 66.9 ± 8.5%; micturition contractions (relative value, before administration = 100) ([2]; 3 mg/kg p.o., after 5 hrs.): 100.9 ± 5.5%; pre-micturition contractions (relative value, before administration = 100) ([2]; 3 mg/kg p.o., after 5 hrs.): 74.7 ± 7.6%
2 | CC(C)(C(=O)[O-])C(=O)Nc1cccc2c1C(=O)c1sccc1CS2(=O)=O.[Na+] [Compound 3] | 109.3 ± 5.7 | 66.2 ± 15.8 | 109.5 ± 8.2 | 65.3 ± 24.9 | 111.4 ± 5.6 | 52.3 ± 13.7 | micturition contractions (relative value, before administration = 100) ([2]; 10 mg/kg p.o., after 1 hr.): 96.8 ± 6.3%; pre-micturition contractions (relative value, before administration = 100) ([2]; 10 mg/kg p.o., after 1 hr.): 62.4 ± 7.1%; micturition contractions (relative value, before administration = 100) ([2]; 10 mg/kg p.o., after 3 hrs.): 95.7 ± 4.7%; pre-micturition contractions (relative value, before administration = 100) ([2]; 10 mg/kg p.o., after 3 hrs.): 49.1 ± 6.3%; micturition contractions (relative value, before administration = 100) ([2]; 10 mg/kg p.o., after 5 hrs.): 92.2 ± 4.6%; pre-micturition contractions (relative value, before administration = 100) ([2]; 10 mg/kg p.o., after 5 hrs.): 51.8 ± 3.5%
3 | C[C@](O)(C(=O)Nc1cccc2c1C(=O)c1sccc1CO2)C(F)(F)F [Compound 4] | 95.5 ± 8.2 | 58.6 | 106.2 ± 7.0 | 44.4 | 121.4 ± 9.5 | 42.6 | –
4 | CC(C)(C)C(=O)Nc1cccc2c1C(=O)c1sccc1CO2 [Compound 5] | 96.8 ± 4.4 | 86.2 ± 10.2 | 109.4 ± 6.4 | 57.3 ± 9.2 | 113.9 ± 15.4 | 44.8 ± 6.1 | –
5 | CC(O)(C(=O)Nc1ccc(Cl)c2c1C(=O)c1sccc1CS2(=O)=O)C(F)(F)F (stereo not drawn) [Compound 6] | 96.8 ± 4.4 | 62.7 ± 9.3 | 109.4 ± 6.4 | 87.9 ± 16.9 | 113.9 ± 15.4 | 69.0 ± 11.8 | –
